Measurements taken from ChEMBL document CHEMBL5257037, “Side Chain Cyclized Aromatic Amino Acids: Great Tools as Local Constraints in Peptide and Peptidomimetic Design” (J Med Chem, 2016).

Experiments:
[1] = biological target: T1, Angiotensin-converting enzyme (Rattus norvegicus) (UniProt P47820); test: In vivo inhibition of ACE in iv dosed rat assessed as inhibition of Ang1 induced pressor response; assay type: functional, organism-based
T1 sequence (whole entry): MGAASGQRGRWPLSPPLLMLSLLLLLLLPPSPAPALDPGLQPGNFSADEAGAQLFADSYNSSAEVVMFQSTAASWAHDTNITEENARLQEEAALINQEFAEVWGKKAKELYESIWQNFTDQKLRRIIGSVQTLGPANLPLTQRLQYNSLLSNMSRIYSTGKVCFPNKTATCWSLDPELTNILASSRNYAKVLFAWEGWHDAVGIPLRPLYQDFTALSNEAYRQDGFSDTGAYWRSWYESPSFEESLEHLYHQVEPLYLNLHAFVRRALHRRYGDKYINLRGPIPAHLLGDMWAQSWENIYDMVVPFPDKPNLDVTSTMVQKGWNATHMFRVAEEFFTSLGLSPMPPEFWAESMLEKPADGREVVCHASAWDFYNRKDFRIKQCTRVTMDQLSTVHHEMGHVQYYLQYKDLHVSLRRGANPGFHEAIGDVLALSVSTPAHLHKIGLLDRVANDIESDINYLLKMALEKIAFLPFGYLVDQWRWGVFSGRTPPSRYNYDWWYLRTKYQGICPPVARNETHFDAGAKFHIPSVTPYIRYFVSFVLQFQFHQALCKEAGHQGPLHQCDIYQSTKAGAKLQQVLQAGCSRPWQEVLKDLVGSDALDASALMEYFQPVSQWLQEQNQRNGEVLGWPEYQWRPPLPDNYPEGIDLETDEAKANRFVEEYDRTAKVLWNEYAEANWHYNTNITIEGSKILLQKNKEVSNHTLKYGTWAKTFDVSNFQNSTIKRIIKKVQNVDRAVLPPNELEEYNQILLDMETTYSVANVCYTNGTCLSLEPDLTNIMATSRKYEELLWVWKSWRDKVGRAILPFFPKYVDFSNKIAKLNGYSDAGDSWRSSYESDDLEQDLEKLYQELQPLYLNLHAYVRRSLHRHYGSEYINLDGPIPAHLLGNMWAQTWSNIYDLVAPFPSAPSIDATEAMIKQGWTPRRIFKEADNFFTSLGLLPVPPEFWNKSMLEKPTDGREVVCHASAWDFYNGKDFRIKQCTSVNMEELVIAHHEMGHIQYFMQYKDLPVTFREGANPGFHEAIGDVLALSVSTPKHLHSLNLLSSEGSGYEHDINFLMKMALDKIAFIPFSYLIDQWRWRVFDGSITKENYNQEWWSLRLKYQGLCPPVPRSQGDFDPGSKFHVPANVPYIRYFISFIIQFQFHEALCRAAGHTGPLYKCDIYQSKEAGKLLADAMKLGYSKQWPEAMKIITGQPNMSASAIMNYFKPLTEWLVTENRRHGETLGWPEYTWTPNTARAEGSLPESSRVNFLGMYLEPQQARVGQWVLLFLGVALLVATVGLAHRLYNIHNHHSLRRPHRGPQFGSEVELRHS

[2] = biological target: T2, B2 bradykinin receptor (Homo sapiens) (UniProt P30411); test: Inhibition of B2 bradykinin receptor (unknown origin) at 10 mM relative to control
T2 sequence (whole entry): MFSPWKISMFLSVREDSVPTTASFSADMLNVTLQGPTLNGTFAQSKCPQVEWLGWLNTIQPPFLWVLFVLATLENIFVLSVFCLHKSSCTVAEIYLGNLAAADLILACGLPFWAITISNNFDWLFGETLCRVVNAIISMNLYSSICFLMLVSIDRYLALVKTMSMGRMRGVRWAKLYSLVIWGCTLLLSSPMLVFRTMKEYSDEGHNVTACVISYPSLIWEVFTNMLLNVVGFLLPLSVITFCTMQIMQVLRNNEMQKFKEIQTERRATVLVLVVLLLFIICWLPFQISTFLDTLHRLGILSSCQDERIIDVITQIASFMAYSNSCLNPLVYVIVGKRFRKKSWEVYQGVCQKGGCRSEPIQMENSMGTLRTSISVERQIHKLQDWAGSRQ

ED50 [1] [µmol/kg] | inhibition [2] [%] | Compound
0.57 | – | C[C@H](NC(=O)[C@@H](CS)Cc1ccccc1)C(=O)N1Cc2ccccc2C[C@H]1C(=O)O
0.15 | – | C[C@H](NC(=O)[C@@H](CS)Cc1ccccc1)C(=O)N1c2ccccc2C[C@H]1C(=O)O
0.5 | – | C[C@H](NC(=O)[C@@H](CS)Cc1ccccc1)C(=O)N1CCC[C@H]1C(=O)O

More lines, now with the values behind:

Compound | ED50 [1] [µmol/kg] | inhibition [2] [%]
C[C@@H](C(=O)N[C@@H](CCCNC(=N)N)C(=O)O)N1Cc2ccccc2C[C@@H](NC(=O)[C@H](CO)NC(=O)[C@H](Cc2ccccc2)NC(=O)CNC(=O)[C@@H]2CCCN2C(=O)[C@@H]2CCCN2C(=O)[C@@H](N)CCCNC(=N)N)C1=O | – | 54
O=C(O)CN1C(=O)[C@@H](NC(=O)[C@@H](S)Cc2ccccc2)CCc2ccccc21 | 0.02 | –
C[C@H](NC(=O)[C@@H](S)Cc1ccccc1)C(=O)N1CCC[C@H]1C(=O)O | 0.06 | –
